Residues, ends and D or L forms follow the SMILES beside them. *: point of attachment. Cbz = O=C(OCc1ccccc1)*; CH2F = FC*
Key:
TrkC [1] = test: TrkC caspase cleavage in TrkC-expressing 13.S.24 cells (immunoblot); assay type: cell-based, rat; settings: 13.S.24 cells expressing TrkC; C-terminal TrkC antibody
Description: (§1) To observe the cleavage of TrkC in 13.S.24, MG132 ([…], Z-Leu-Leu-Leuala, Sigma-Aldrich) was added to the culture medium 2 h before harvesting the cells. Cells were then potterised in the Wang buffer (20 mM Hepes KOH/10 mMKCl/1.5 mM MgC12/1 mM Sodium EDTA/1 mM Sodium EGTA/0.1 mM PMSF/1 mM DTT/[…]). Proteins were then analyzed by Western blot using the anti-TrkC antibody (sc-139; Santa Cruz Biotechnology). To monitor TrkC cleavage in vivo, E10.5 OF1 mouse embryos were dissected with a sharpened tungsten needle to isolate the spinal cord, the somites and DRG precursors which were then semidissociated in DMEM F-12 (Invitrogen). The samples were incubated overnight under agitation at 37° C. in the presence or absence of either NT-3 (PreproTech; 10 ng/ml), or BAF (Sigma-Aldrich; […]), or the NT-3 blocking antibody AF1404 (R&D, Minneapolis, Minn.; 1/100). The samples were then lysed directly in the Laemmli sample buffer and the proteins separated on 12% SDS/PAGE. The filter was probed with the anti-TrkC antibody.

rat TrkC = target: T1, rat TrkC (Rattus norvegicus, UniProt Q03351); test: TrkC-induced apoptosis in TrkC-transfected HEK293T or 13.S.24 cells (trypan blue, caspase activity, DNA condensation); assay type: cell-based; settings: for TrkC-induced apoptosis: general caspase inhibitors added after TrkC transfection
T1 construct: We first transiently expressed full-length rat TrkC in HEK293T cells; HA; expressed in transfected cells; host or cells: HEK293T or 13.S.24 olfactory neuroblasts
Description: (§2) Transient transfections of Human Embryonic Kidney 293T and olfactory neuroblasts 13.S.24 cells were performed as previously described (4), by using Lipofectamine Plus (Invitrogen, Carlsbad, Calif.) according to the manufacturer's instructions. HEK293T and 13.S.24 cells where cultured in DMEM (Invitrogen) with the addition of 0.1% gentamycin for 13.S.24 cells. The recombinant human NT-3 was purchased from PreproTech (Rocky Hill, N.J.) and added to the culture medium 3 and 24 h after transfection. TrkC expression was monitored by Western blot with an anti-C-terminal antibody purchased from Santa Cruz Biotechnology (sc-139; Santa Cruz, Calif.), 24 h after transfection. Plasma membrane localisation of Trk receptors was performed by FACS analysis. Briefly, […] cells were transfected and labeled successively with anti-HA antibody (1/100; Sigma, St. Louis, Mo.) and anti-rabbit PE (1/100; Jackson ImmunoResearch Laboratories, West Grove, Pa.). Detection was done using a FACSCalibur (BD Biosciences, San Jose, Calif.).
Cell death was analyzed using trypan blue staining procedures, as previously described (6). Either the z-VAD-fmk (TEBU-bio, Le Perray en Yvelines Cedex, France; […]) or the BAF [Boc-Asp(Ome) Fluoromethyl Ketone; Sigma-Aldrich; […]] caspase inhibitors were added to the culture medium just after transfection. The extent of cell death is presented as the percentage of trypan blue-positive cells in the different transfected cell populations. Relative caspase activity was determined by fluorescence measurement of DEVDAFC cleavage, as described in (8). Immunostaining using anti-caspase-3 antibody (Cell Signaling) was described in (4). […] For flow cytometric analysis, stained cells were counted using a FACSCalibur (BD Biosciences) and CellQuest analysis software with excitation and emission settings of 488 nm and 525-550 nm (filter FL1), respectively.

TrkC [2] = target: T2, TrkC (Homo sapiens, UniProt Q16288); test: Endogenous TrkC cleavage in CLB-Ge2 cells (western blot); assay type: cell-based; set-up: endogenous in cells; host or cells: CLB-Ge2 human neuroblastoma cells
Description: 8×10^4 cells were cytospun on coverslips and fixed in 4% PFA. The slides were then incubated at room temperature for one hour with an antibody recognizing human NT-3 (1/300, SC-547). After rinsing in Phosphate Buffer Saline, the slides were incubated with an Alexa-488-Donkey anti-Rabbit antibody (Molecular Probes). Nucleus were visualized with Hoechst staining (Sigma). Expression of TrkC constructs and endogenous TrkC cleavage were monitored by western blot with anti-Trk antibody (sc-11; Santa Cruz Biotechnology) and an anti […]-actin (13E5; Cell Signaling) was used as loading control as previously described (36).

TrkC [3] = target: T3, TrkC (Mus musculus, UniProt Q6VNS1); test: TrkC cleavage in semidissociated embryonic mouse DRG (Western blot); assay type: cell-based; settings: DRG maintained overnight; NT-3 10 ng/ml
T3 construct: embryonic mouse dorsal root ganglion (DRG) were semidissociated and maintained overnight; from tissue; host or cells: spinal cord, somites and DRG precursors of E10.5 OF1 mouse embryos, semidissociated
Description: as §1

TrkC [4] = target: T2, TrkC; test: Human TrkC-induced cell death in transfected 13.S.24 cells (active caspase-3); assay type: cell-based; set-up: expressed in transfected cells; host or cells: 13.S.24 olfactory neuroblasts; settings: NT-3 10 ng/ml
Description: as §2, with “Detection was done using a FACSCalibur (BD Biosciences, San Jose, Calif.).” left out
Cell death was analyzed using trypan blue staining procedures, as previously described (6). […] Relative caspase activity was determined by fluorescence measurement of DEVDAFC cleavage, as described in (8). […] For flow cytometric analysis, stained cells were counted using a FACSCalibur (BD Biosciences) and CellQuest analysis software with excitation and emission settings of 488 nm and 525-550 nm (filter FL1), respectively.

T1 sequence (Q03351 32-825 isoform Q03351-2 limits assumed): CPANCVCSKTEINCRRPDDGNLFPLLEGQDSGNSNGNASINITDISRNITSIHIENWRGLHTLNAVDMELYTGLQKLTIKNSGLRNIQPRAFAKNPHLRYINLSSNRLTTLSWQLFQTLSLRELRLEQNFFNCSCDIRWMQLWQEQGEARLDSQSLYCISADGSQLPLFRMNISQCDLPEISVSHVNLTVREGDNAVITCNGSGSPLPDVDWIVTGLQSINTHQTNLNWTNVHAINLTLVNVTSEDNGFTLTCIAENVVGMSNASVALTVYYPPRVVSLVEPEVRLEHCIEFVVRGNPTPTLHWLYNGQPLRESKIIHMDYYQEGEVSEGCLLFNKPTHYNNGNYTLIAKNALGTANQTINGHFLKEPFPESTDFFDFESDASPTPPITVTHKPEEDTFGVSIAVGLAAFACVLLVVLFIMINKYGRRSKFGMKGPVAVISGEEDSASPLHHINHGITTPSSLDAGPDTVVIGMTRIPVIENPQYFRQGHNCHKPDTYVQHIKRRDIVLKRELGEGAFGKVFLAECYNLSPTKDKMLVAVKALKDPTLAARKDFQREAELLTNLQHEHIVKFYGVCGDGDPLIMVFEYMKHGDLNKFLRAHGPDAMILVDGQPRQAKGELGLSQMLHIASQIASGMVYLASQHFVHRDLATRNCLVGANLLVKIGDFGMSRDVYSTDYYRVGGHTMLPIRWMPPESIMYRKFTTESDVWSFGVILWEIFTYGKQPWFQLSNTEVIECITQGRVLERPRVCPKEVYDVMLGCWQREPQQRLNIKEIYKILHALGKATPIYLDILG
T2 sequence (Q16288 32-839): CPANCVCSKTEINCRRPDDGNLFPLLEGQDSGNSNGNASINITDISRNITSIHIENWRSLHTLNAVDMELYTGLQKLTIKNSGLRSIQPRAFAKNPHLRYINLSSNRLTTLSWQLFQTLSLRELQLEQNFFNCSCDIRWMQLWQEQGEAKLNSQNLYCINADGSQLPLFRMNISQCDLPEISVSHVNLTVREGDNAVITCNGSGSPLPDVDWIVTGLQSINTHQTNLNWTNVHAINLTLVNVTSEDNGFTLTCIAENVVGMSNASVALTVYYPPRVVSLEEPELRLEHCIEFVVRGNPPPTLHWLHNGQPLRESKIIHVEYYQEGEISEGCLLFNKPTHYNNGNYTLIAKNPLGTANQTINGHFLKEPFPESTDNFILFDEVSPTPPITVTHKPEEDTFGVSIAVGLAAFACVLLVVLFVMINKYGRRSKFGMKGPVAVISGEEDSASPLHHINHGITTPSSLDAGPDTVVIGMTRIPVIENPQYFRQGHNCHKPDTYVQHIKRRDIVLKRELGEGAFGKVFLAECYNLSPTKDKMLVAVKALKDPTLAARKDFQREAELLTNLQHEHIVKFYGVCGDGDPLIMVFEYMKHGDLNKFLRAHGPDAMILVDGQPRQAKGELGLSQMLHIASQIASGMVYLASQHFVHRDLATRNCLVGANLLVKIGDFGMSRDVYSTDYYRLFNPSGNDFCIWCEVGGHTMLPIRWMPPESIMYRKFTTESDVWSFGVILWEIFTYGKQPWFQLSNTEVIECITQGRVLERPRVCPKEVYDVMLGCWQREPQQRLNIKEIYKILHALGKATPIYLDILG
T3 sequence (Q6VNS1 32-825): as the sequence (Q03351 32-825 isoform Q03351-2 limits assumed) above

Compound	TrkC cleavage bands (35 and 20 kDa) (TrkC [1])	TrkC-induced apoptosis (rat TrkC)	TrkC caspase cleavage (20 kDa band) (TrkC [2])	20-kDa TrkC fragment (TrkC [3])	human TrkC-triggered cell death (TrkC [4])	TrkC-mediated cell death (trypan blue exclusion, caspase activity, DNA condensation) (rat TrkC; rat TrkC-transfected 13.S.24 cells, NT-3 0.5-50 ng/ml)
COC(=O)CC(NC(=O)OC(C)(C)C)C(=O)CF (stereo not shown) [BAF, boc-aspartyl(OMe)-fluoromethylketone]	failed to be detected	fully inhibit TrkC-induced apoptosis	blocked	disappeared		
COC(=O)CC[C@H](NC(=O)[C@H](CC(=O)OC)NC(=O)OCc1ccccc1)C(=O)N[C@H](C(=O)N[C@@H](CC(=O)OC)C(=O)CF)C(C)C [DEVD-fmk]	fail to block caspase-dependent cleavage of TrkC					
COC(=O)C[C@H](NC(=O)[C@H](C)NC(=O)[C@@H](NC(=O)OCc1ccccc1)C(C)C)C(=O)CF [zVAD-fmk] (Cbz-Val-Ala-Asp(OMe)-CH2F)	failed to be detected	fully inhibit TrkC-induced apoptosis				
NT-3: recombinant human NT-3 purchased from PreproTech; ligand of TrkC				disappeared	triggers cell death unless NT-3 is present	inhibited, in a dose-dependent manner

Source: patent US20140186364A1, “INHIBITION OF THE NT-3:TRKC BOUND AND ITS APPLICATION TO THE TREATMENT OF CANCER SUCH AS NEUROBLASTOMA” (CENTRE NATIONAL DE LA RECHERCHE SCIENTIFIQUE (CNRS), priority 2008, published 2014)
